In PubChem BioAssay AID463204 (Broad Institute, 2010):
Active and inactive are the calls of the source.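 How the source made its calls: active means AC50 no more than ten times the top concentration tested, that is within one log above it; inconclusive means flat curve fit with activity between 30% and 70%, or invalid poor fit; inactive means AC50 beyond ten times the top tested dose.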

What follows are compounds tested on S. cerevisiae Mot1-301 ts growth rescue, BacTiter-Glo ATP luminescence (assay: restored Mot1-301 yeast growth at 38.5C – whole organism, S. cerevisiae, Mot1-301 ts mutant, luminescence, dose retest, SUMOylation pathway inhibitor project, confirmation (AID 463204);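 further: growth at restrictive 38.5 degrees C of Mot1-301 OY566 strain; actives raise luminescence by restoring growth of the ts mutant at high temperature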).
In the case of `O=C(COc1ncnc2c(Cl)cc(Cl)cc12)NCCC1=CCCCC1`, the AC50 was > 42 µM (inactive).
In the case of `COc1ccc(-c2nc3c(c(SCC(=O)N4CCOCC4)n2)Cc2c(CO)cnc(C)c2O3)cc1`, the AC50 was > 42 µM (inactive).
For `COCCn1c(SCC(=O)N2CCCC2)nnc1-c1ccoc1C`, the AC50 was > 42 µM (inactive).
`Nc1ccc(Oc2ccccc2-c2ccccc2)cc1` gave an AC50 of 20.8 µM.
For `COc1cc2nc(CSc3ncn[nH]3)[nH]c(=O)c2cc1OC`, the AC50 was > 42 µM (inactive).
With `CCOC(=O)N1CCN(C(=O)c2ccc(CS(=O)(=O)c3c(Cl)cccc3Cl)o2)CC1` the AC50 was > 42 µM (inactive).
For `COc1ccc(NC(=O)c2cc(S(=O)(=O)Nc3ccc(OC)cc3)cs2)cc1`, the AC50 was > 42 µM (inactive).
With `CN(CC(=O)Nc1ccccc1Sc1ccccc1)Cc1nc2ccccc2c(=O)[nH]1` the AC50 was > 42 µM (inactive).
`COc1cc(SC)ccc1C(=O)N1CCCCCC1` was tested, and the AC50 was > 42 µM (inactive).
In the case of `CCCc1nnc(NC(=O)c2cn(CC)c3cc(N4CCN(C)CC4)c(F)cc3c2=O)s1`, the AC50 was > 21 µM (inactive).
With `CCCCCCCCc1nc(SCC(C)=O)n[nH]1` the AC50 was > 42 µM (inactive).
In the case of `CC(C)(C)CC(=O)Nc1cc(S(=O)(=O)N2CCOCC2)ccc1N1CCCC1`, the AC50 was > 42 µM (inactive).
For `COc1cccc(NC(=S)NC(=O)c2cncc(Br)c2)c1`, the AC50 was > 42 µM (inactive).
In the case of `COc1cc2c(cc1OC)CN(S(=O)(=O)c1cccc(F)c1)CC2`, the AC50 was > 42 µM (inactive).
For `Cc1cc(NC(=O)c2ccccc2F)n(C(C)(C)C)n1`, the AC50 was > 42 µM (inactive).
In the case of `CCCNC(=O)COC(=O)CCC(=O)c1cccs1`, the AC50 was > 42 µM (inactive).
`CC1(C)CC(=O)C(C(=O)c2ccccc2)C(=O)C1Cl` (stereo unspecified) was tested, and the AC50 was > 42 µM (inactive).
`COc1ccccc1C(=O)NC(=O)COC(=O)Cc1ccccc1[N+](=O)[O-]` was tested, and the AC50 was > 42 µM (inactive).
For `CCCCn1c(N)c(N(CC(C)C)C(=O)CSCC(=O)Nc2cccc(C)c2)c(=O)[nH]c1=O`, the AC50 was > 42 µM (inactive).
In the case of `O=C(CCNC(=O)c1ccc(Br)cc1)NCc1ccccc1F`, the AC50 was > 42 µM (inactive).
For `COc1nc(-c2ccccc2)ccc1-c1noc(-c2ccccc2)n1`, the AC50 was > 42 µM (inactive).
`CCOC(=O)c1sc(N/N=C/c2ccc(N(C)C)cc2)nc1C` was tested, and the AC50 was > 42 µM (inactive).
For `CCC(=O)Nc1nc(CC(=O)Nc2ccccc2OC)cs1`, the AC50 was > 42 µM (inactive).
For `Cc1ccc(S(=O)(=O)N(C)CC(=O)O/N=C(\N)c2ccccn2)cc1`, the AC50 was > 42 µM (inactive).
`Clc1ccc(N=c2ssnc2Cl)nc1` showed an AC50 of 0.78 µM.
For `c1ccc(CNc2ccc3ccccc3n2)nc1`, the AC50 was > 42 µM (inactive).
`Cc1ccccc1NC(=O)COC(=O)C1C2CC3OC(=O)C1C3C2` (stereo unspecified) was tested, and the AC50 was > 42 µM (inactive).
With `Cn1cc(C(=O)Cc2ccccc2)c2ccccc21` the AC50 was > 42 µM (inactive).
With `CCCOC(=O)c1c(NC(=O)/C=C/c2cnn(C)c2C)sc(C(=O)OC)c1C` the AC50 was > 42 µM (inactive).
For `CCOC(=O)c1cc2sc(C)cc2n1CC(=O)Nc1ccc2c(c1)OCCO2`, the AC50 was > 42 µM (inactive).
In the case of `Nc1nnc(CC(=O)N2CCCCC2)s1`, the AC50 was > 42 µM (inactive).
`COc1ccc(C2=NN(C(=S)Nc3ccccc3)C(c3ccccc3)C2)cc1` (stereo unspecified) was tested, and the AC50 was > 42 µM (inactive).
For `CN1CCN(C(=O)CCN2C(=O)/C(=C/c3ccccc3Cl)SC2=S)CC1`, the AC50 was > 42 µM (inactive).
For `CCOC(=O)N1CCC(Nc2nc3ccccc3n3nnnc23)CC1`, the AC50 was > 42 µM (inactive).
In the case of `CCOC(=O)c1cccc(NC(=O)C2CCCN(S(=O)(=O)c3c(C)n[nH]c3C)C2)c1` (stereo unspecified), the AC50 was > 42 µM (inactive).
Compound `Cc1ccc(S(=O)(=O)N2[C@@H](c3ccccc3)C(C(=O)O)=CC[C@H]2c2ccc(Cl)cc2)cc1` has an AC50 of 8.57 µM.
For `COc1ccc(NC(=O)Nc2ccccc2C(=O)N2CCCC2)cc1`, the AC50 was > 42 µM (inactive).
`Cc1nc2ccc(NC(=O)c3ccco3)cc2s1` was tested, and the AC50 was > 42 µM (inactive).
`CC(C)c1ccc2c(c1)CCC1C(C)(CN)CCCC21C` (stereo unspecified) showed an AC50 of 14.3 µM.
With `COc1cc(C(=O)N/N=C/c2ccccn2)cc(OC)c1OC` the AC50 was > 42 µM (inactive).
With `CCOc1ccc(N(C(=O)C2CCCO2)C2C=CS(=O)(=O)C2)cc1` (stereo unspecified) the AC50 was > 42 µM (inactive).
